How the values were obtained:
Assay type in all cases: cell-based, human
salivary gland cells = experiment: Karyotype analysis (Q band technique) of primary cultured salivary gland cells; conditions: primary cultured labial gland cells cultured in inhibitor-containing medium; FIG. 5
Experimental: Primary cultured salivary gland cells were cultured in a medium containing a Rock inhibitor and analyzed for the presence or absence of their genetic defect(s) by karyotype analysis. The karyotype analysis test was conducted by Q band technique.

[1] = system: cancer-associated fibroblasts (CAFs); experiment: Cell culture of cancer-associated fibroblasts using a Rho kinase inhibitor (cell morphology); conditions: inhibitor-containing medium (10 μM); passage 7 with inhibitor vs passage 1 without; FIG. 14
Experimental: Odontoma cells, oral mucosal epithelial cells, fibroblasts, and cancer-associated fibroblasts (CAFs) (i) Patient-derived cells for use as a source material were taken in a required amount as described above. (ii) The cells were washed three times with phosphate-buffered physiological saline (PBS) (supplemented with 10 units/ml of penicillin and 100 μg/ml of streptomycin: Sigma-Aldrich). (iii) The cells were cut into small pieces with sterilized iris scissors and a surgical knife (No. 11). (iv) After addition of trypsin (TrypLE Select Enzyme, Gibco, Code No. A12177-01), the cells were shaken at 37° C. for 30 minutes. (v) The cells were mixed with Dulbecco's modified Eagle medium (DMEM: Sigma-Aldrich) (supplemented with 10% fetal bovine serum: Nichirei Bioscience Inc., Japan, 10 units/ml of penicillin and 100 μg/ml of streptomycin), and centrifugation (at 1000 rpm for 5 minutes) was repeated three times. (vi) The cells were mixed with DMEM (supplemented with 10% fetal bovine serum, 10 units/ml of penicillin, 100 μg/ml of streptomycin, 10 μM of the Rock kinase inhibitor and 0.3 μM of L-ascorbic acid 2-phosphate: Sigma-Aldrich) (DMEM+) and then seeded into collagen type I-coated cell culture dishes (IWAKI). (vii) The cells were washed with PBS once every three days to replace the above medium. (viii) The cultured cells were subcultured at 80% confluency. […]

caspase-3 = experiment: Western blotting of caspase-3 (apoptosis) in salivary gland cells; conditions: salivary gland cells in Rock inhibitor-containing medium; relative to α-tubulin; FIG. 6A
Experimental: (§1) Primary cultured salivary gland cells were cultured in a medium containing a Rock inhibitor and analyzed for their proliferation by Western blotting of proliferating cell nuclear antigen (PCNA: Santa Cruz) and for their apoptosis by Western blotting of caspase-3 (CST). For analysis of their immortalization, the expression of telomerase reverse transcriptase (TERT) was analyzed by quantitative RT-PCR assay.
(§2) The protein levels of PCNA and caspase-3 were measured by Western blotting. In addition, α-tubulin was used as an endogenous control.
(§3) (i) A protein extract was electrophoresed on a 4% to 12% polyacrylamide gel (Invitrogen).
(§4) (ii) The proteins were transferred onto a nitrocellulose membrane (Invitrogen).
(§5) (iii) The membrane was washed with Tris-buffered saline containing 0.1% Tween-20 (WaKo) (TBST), and then blocked with Blocking One (Nacalai Tesque, Inc., Japan) for 30 minutes. […]
(§6) (vi) The membrane was reacted at room temperature for 1 hour with horseradish peroxidase (HRP)-conjugated secondary antibody (Promega) and then treated with Super Signal West Pico Chemiluminescent substrate (Thermo) to develop signals for visualization purposes. The intensity of signals was quantified with a CS analyzer (ATTO) and expressed as a relative value in comparison with the protein level of α-tubulin measured as a control.

[2] = system: proliferating cell nuclear antigen (PCNA); experiment: Western blotting of PCNA (proliferation) in salivary gland cells; conditions: salivary gland cells in Rock inhibitor-containing medium; relative to α-tubulin; FIG. 6A
Experimental: as §1, §2, §3, §4, §5, §6

amylase = experiment: Expression analysis of amylase by quantitative RT-PCR in salivary gland cells; conditions: salivary gland cells repeatedly subcultured in Rock inhibitor-containing medium; relative to GAPDH; FIG. 2
Experimental: Salivary gland cells were cultured in the presence or absence of a Rock inhibitor and provided for quantitative RT-PCR assay with a LightCycler 480 (Roche) to analyze amylase expression in these salivary gland cells. The primers used for amylase are as shown below, and the universal probe used was #18. The primers used for glyceraldehyde-3-phosphate dehydrogenase (GAPDH) serving as an endogenous control are as shown below, and the universal probe used was #60. The PCR reaction was conducted in accordance with standard protocols by using a mixture (final reaction volume: 20 μl) containing 10 μl of Probe master (Roche), 0.2 μl of each probe master and the primers. The reaction conditions were set to initial denaturation at 95° C. for 5 minutes and 50 amplification cycles of denaturation at 95° C. for 10 seconds, annealing at 60° C. for 30 seconds and elongation reaction at 60° C. for 60 seconds. The mRNA level of the desired gene was expressed as a relative value to the expression level of GAPDH used as a control.

chromosomal/genetic defect(s) in karyotype analysis (salivary gland cells): No genetic defect was observed
Compound: CC(N)[C@H]1CC[C@H](C(=O)Nc2ccncc2)CC1 (stereo partly drawn) [Rock inhibitor, (R)-(+)-trans-N-(4-pyridyl)-4-(1-aminoethyl)-cyclohexanecarboxamide]
cell morphology of cancer-associated fibroblasts on repeated subculture [1]: maintain their cell morphology even when repeatedly subcultured
caspase-3 expression (caspase-3): no difference was observed
PCNA expression [2]: no difference was observed
mRNA expression of amylase (amylase): significantly high

Reference: patent US20170349879A1, “METHOD FOR CULTURING NORMAL CELLS AND ODONTOMA CELLS CONTAINED IN ORAL TISSUE” (CHIBA UNIVERSITY, priority 2014, published 2017)
